In patent US20240018163A1, “NEW THIAZOLOPYRIMIDINONE DERIVATIVES” (Hoffmann-La Roche Inc., priority 2021, published 2024):

System: mutant HTT protein (mHTT)
Experiment: Homogeneous Time Resolved Fluorescence (HTRF) assay for HTT lowering
Assay type: cell-based
Conditions: reduction of mHTT in Huntington patient human cells (GENEAe020-A cell line), 48 hours incubation, mean from three replicates
Procedure: Homogeneous Time Resolved Fluorescence for HTT lowering
The HTRF assay was adapted from Weiss et al. (Analytical Biochemistry Volume 395, Issue 1, 1 Dec. 2009, Pages 8-15 and Analytical Biochemistry Volume 410, 2011, Pages 304-306) to cells from GENEAe020-A cell line (https://hpscreg.eu/cell-line/GENEAe020-A).
Compounds were tested for the effect of mutant HTT levels in Huntington patient human cells (GENEAe020-A cell line) using Homogeneous Time Resolved Fluorescence (HTRF) directed towards mutant HTT protein (mHTT). The GENEAe020-A cell line was derived by Genea Biocells from human blastocysts of HD donors. After assessing viability, cells were plated into 384 well collagen coated plates in growth media. Once cells adhered, media was removed and test compounds dissolved in DMSO were diluted with buffer solution and added to the adherent cells. Controls included experiments with no cells, DMSO with no compound, and Hsp90 inhibitor control. Cells were incubated with compounds and controls for 48 hours. Then, the cells were lysed and transferred to an assay plate containing HTRF labeled monoclonal antibodies developed by Paul Patterson (Ko et al., Brain Research Bulletin, Volume 56, Numbers 3 and 4, 2001, Pages 319-329) which recognize specific areas of the HTT protein. The terbium labeled “donor” antibody (2B7) binds to the N-terminus of the HTT protein and the Alexa488 labeled “acceptor” antibody (MW1) is specific for the polyglutamine region of the protein. Binding of the acceptor labeled antibody is more efficient for the extended polyglutamine repeats of mutant HTT protein which translates into a signal boost which enables the specific measurement of mutant HTT protein level. The HTRF donor and acceptor detection reagents were incubated with the cell lysate and the ratio between the signals of the two fluorophores is indicative of the relative quantities of mHTT.

COc1cc(-c2cc(=O)n3cc([C@]4(F)CCNC[C@@H]4F)sc3n2)nn2cc(C)nc12 [Example 57, 7-(8-methoxy-2-methyl-imidazo[1,2-b]pyridazin-6-yl)-2-[(3S,4S)-3,4-difluoro-4-piperidyl]thiazolo[3,2-a]pyrimidin-5-one]
EC50: 239 nM

Cc1cn2nc(-c3cc(=O)n4cc(N5CCN[C@H](C)C5)sc4n3)cc(C)c2n1 [Example 7, 7-(2,8-dimethylimidazo[1,2-b]pyridazin-6-yl)-2-[(3R)-3-methylpiperazin-1-yl]thiazolo[3,2-a]pyrimidin-5-one]
EC50: 52 nM

Cc1cn2nc(-c3cc(=O)n4cc(N5CCNC6(CC6)C5)sc4n3)cc(C)c2n1 [Example 4, 2-(4,7-diazaspiro[2.5]octan-7-yl)-7-(2,8-dimethylimidazo[1,2-b]pyridazin-6-yl)thiazolo[3,2-a]pyrimidin-5-one]
EC50: 3530 nM

COc1cc(-c2cc(=O)n3cc([C@H]4C[C@H]5CNC[C@@H](C4)O5)sc3n2)nn2cc(C)nc12 [Example 49, 7-(8-methoxy-2-methyl-imidazo[1,2-b]pyridazin-6-yl)-2-[rac-(1R,5S)-9-oxa-3-azabicyclo[3.3.1]nonan-7-yl]thiazolo[3,2-a]pyrimidin-5-one]
EC50: 200 nM

Cc1cn2nc(-c3cc(=O)n4cc(N5CCN6CCC[C@@H]6C5)sc4n3)cc(C(F)(F)F)c2n1 [Example 25, 7-[2-methyl-8-(trifluoromethyl)imidazo[1,2-b]pyridazin-6-yl]-2-[(8aR)-3,4,6,7,8,8a-hexahydro-1H-pyrrolo[1,2-a]pyrazin-2-yl]thiazolo[3,2-a]pyrimidin-5-one]
EC50: 454 nM
